Where “and” joins values, the source holds several entries; their conditions need not be identical. Identical values can stand only once. Like-named read-outs stand apart in the source and are kept apart here. Marks after values point to notes of the source that are not given here.
Experiment: Phase 1 crossover PK study: oral solution fed/fasted vs IV infusion in healthy subjects
Assay type: in vivo, human
Details: for bioavailability: dose increasing from 180 mg to 320 mg
Protocol: This pharmacokinetic (PK) study in healthy subjects was conducted to characterize and compare the PK parameters in plasma following a single intravenous (IV) dose of Elraglusib Injection, Elraglusib Oral Solution after fasting, and Elraglusib Oral Solution after a high-fat meal (fed). The study was intended to assess the potential feasibility of an oral formulation of elraglusib based on systemic exposure being within the biologically active range. In clinical studies conducted to date, elraglusib Injection (10 mg/mL) is administered IV once or twice per week over multiple hours, which requires a significant amount of time and resources by both patients and site personnel. […] See Example 3 above.
The route of administration is by IV infusion after diluting elraglusib for injection with 0.9% Sodium Chloride Injection.
It is a clear, red solution, free of visible particulate matter and a low bioburden liquid dosage form that is self-preserving against microbial growth.
Subjects received a single 3.3 mg/kg dose of each of the following in a randomly assigned order separated by a 2-week period.
During the study, the high fat meal was administered over a period of under 30 minutes (in almost all cases, 28 minutes).
Elraglusib Injection (10 mg/mL) administered as an IV infusion over 60 minutes (concentration in mg/mL and infusion rate in mL/kg/hour could vary depending on the subject's body weight).
PK parameters including AUC, Cmax, Tmax, and t1/2 were analyzed by standard non-compartmental analysis (NCA) methods following each of the elraglusib doses. Log transformed Cmax and AUC parameters in subjects having adequate PK data following at least 1 of the oral and IV doses were used to assess the relative bioavailability of the oral dose (fed and/or fasted) compared to the IV dose.
All efforts were made to obtain the PK samples at the scheduled nominal times relative to dosing. PK samples were assayed using validated analytical methods.

[1] = oral 3.3 mg/kg fasted state, human plasma
[2] = oral 3.3 mg/kg fed state, human plasma
[3] = oral fasted vs IV infusion, 3.3 mg/kg
[4] = oral fed vs IV infusion, 3.3 mg/kg
[5] = oral fed vs oral fasted, 3.3 mg/kg

Structure (SMILES): Cn1cc(C2=C(c3coc4ccc(F)cc34)C(=O)NC2=O)c2cc3c(cc21)OCO3 [elraglusib, 3-(5-fluorobenzofuran-3-yl)-4-(5-methyl-5H-[1,3]dioxolo[4,5-f]indol-7-yl)-1H-pyrrole-2,5-dione]
- Tmax (human, plasma, po, 3.3 mg/kg, oral 3.3 mg/kg fasted state, human plasma, read-out: Tmax Median): 2 h
- half-life (human, plasma, po, 3.3 mg/kg, oral 3.3 mg/kg fasted state, human plasma, read-out: t1/2 Arithmetic Mean (converted)): 16.4 h
- half-life (human, plasma, po, 3.3 mg/kg, oral 3.3 mg/kg fasted state, human plasma, read-out: t1/2 GMean (converted)): 15.6 h
- half-life (human, plasma, po, 3.3 mg/kg, oral 3.3 mg/kg fasted state, human plasma, read-out: t1/2 Median (converted)): 18.2 h
- AUC (human, plasma, po, 3.3 mg/kg, oral 3.3 mg/kg fed state, human plasma, read-out: AUC24 Arithmetic Mean): 3930 ng·h/mL
- AUC (human, plasma, po, 3.3 mg/kg, oral 3.3 mg/kg fed state, human plasma, read-out: AUC24 GMean): 3420 ng·h/mL
- AUC (human, plasma, po, 3.3 mg/kg, oral 3.3 mg/kg fed state, human plasma, read-out: AUC24 Median): 3990 ng·h/mL
- AUC (human, plasma, po, 3.3 mg/kg, oral 3.3 mg/kg fed state, human plasma, read-out: AUC48 Arithmetic Mean): 4550 ng·h/mL
- AUC (human, plasma, po, 3.3 mg/kg, oral 3.3 mg/kg fed state, human plasma, read-out: AUC48 GMean): 3980 ng·h/mL
- AUC (human, plasma, po, 3.3 mg/kg, oral 3.3 mg/kg fed state, human plasma, read-out: AUC48 Median): 4440 ng·h/mL
- AUC (human, plasma, po, 3.3 mg/kg, oral 3.3 mg/kg fed state, human plasma, read-out: AUC72 Arithmetic Mean): 4780 ng·h/mL
- AUC (human, plasma, po, 3.3 mg/kg, oral 3.3 mg/kg fed state, human plasma, read-out: AUC72 GMean): 4160 ng·h/mL
- AUC (human, plasma, po, 3.3 mg/kg, oral 3.3 mg/kg fed state, human plasma, read-out: AUC72 Median): 4600 ng·h/mL
- AUC (human, plasma, po, 3.3 mg/kg, oral 3.3 mg/kg fed state, human plasma, read-out: AUC96 Arithmetic Mean): 4890 ng·h/mL
- AUC (human, plasma, po, 3.3 mg/kg, oral 3.3 mg/kg fed state, human plasma, read-out: AUC96 GMean): 4250 ng·h/mL
- AUC (human, plasma, po, 3.3 mg/kg, oral 3.3 mg/kg fed state, human plasma, read-out: AUC96 Median): 4730 ng·h/mL
- AUC(0-t) (human, plasma, po, 3.3 mg/kg, oral 3.3 mg/kg fed state, human plasma, read-out: AUClast Arithmetic Mean): 4890 ng·h/mL
- AUC(0-t) (human, plasma, po, 3.3 mg/kg, oral 3.3 mg/kg fed state, human plasma, read-out: AUClast GMean): 4250 ng·h/mL
- AUC(0-t) (human, plasma, po, 3.3 mg/kg, oral 3.3 mg/kg fed state, human plasma, read-out: AUClast Median): 4730 ng·h/mL
- AUC(0-inf) (human, plasma, po, 3.3 mg/kg, oral 3.3 mg/kg fed state, human plasma, read-out: AUC∞ Arithmetic Mean): 5000 ng·h/mL
- AUC(0-inf) (human, plasma, po, 3.3 mg/kg, oral 3.3 mg/kg fed state, human plasma, read-out: AUC∞ GMean): 4330 ng·h/mL
- AUC(0-inf) (human, plasma, po, 3.3 mg/kg, oral 3.3 mg/kg fed state, human plasma, read-out: AUC∞ Median): 5020 ng·h/mL
- CL/F (human, plasma, po, 3.3 mg/kg, oral 3.3 mg/kg fed state, human plasma, read-out: CL/F Arithmetic Mean (converted)): 15.1 mL/min/kg
- CL/F (human, plasma, po, 3.3 mg/kg, oral 3.3 mg/kg fed state, human plasma, read-out: CL/F GMean (converted)): 12.7 mL/min/kg
- CL/F (human, plasma, po, 3.3 mg/kg, oral 3.3 mg/kg fed state, human plasma, read-out: CL/F Median (converted)): 11 mL/min/kg
- Cmax (human, plasma, po, 3.3 mg/kg, oral 3.3 mg/kg fed state, human plasma, read-out: Cmax Arithmetic Mean): 592 ng/mL
- Cmax (human, plasma, po, 3.3 mg/kg, oral 3.3 mg/kg fed state, human plasma, read-out: Cmax GMean): 474 ng/mL
- Cmax (human, plasma, po, 3.3 mg/kg, oral 3.3 mg/kg fed state, human plasma, read-out: Cmax Median): 507 ng/mL
- Tmax (human, plasma, po, 3.3 mg/kg, oral 3.3 mg/kg fed state, human plasma, read-out: Tmax Arithmetic Mean): 5.34 h
- Tmax (human, plasma, po, 3.3 mg/kg, oral 3.3 mg/kg fed state, human plasma, read-out: Tmax GMean): 5.02 h
- Tmax (human, plasma, po, 3.3 mg/kg, oral 3.3 mg/kg fed state, human plasma, read-out: Tmax Median): 5 h
- Vd/F (human, plasma, po, 3.3 mg/kg, oral 3.3 mg/kg fed state, human plasma, read-out: Vz/F GMean): 20.9 L/kg and 1530 L
- half-life (human, plasma, po, 3.3 mg/kg, oral 3.3 mg/kg fed state, human plasma, read-out: t1/2 Arithmetic Mean (converted)): 20.8 h
- half-life (human, plasma, po, 3.3 mg/kg, oral 3.3 mg/kg fed state, human plasma, read-out: t1/2 GMean (converted)): 19 h
- half-life (human, plasma, po, 3.3 mg/kg, oral 3.3 mg/kg fed state, human plasma, read-out: t1/2 Median (converted)): 21.2 h
- AUC(0-t) (human, plasma, po, 3.3 mg/kg, oral 3.3 mg/kg, Fasted, read-out: AUClast LS Means): 1460 ng·h/mL
- AUC(0-inf) (human, plasma, po, 3.3 mg/kg, oral 3.3 mg/kg, Fasted, read-out: AUC∞ LS Means): 1480 ng·h/mL
- Cmax (human, plasma, po, 3.3 mg/kg, oral 3.3 mg/kg, Fasted, read-out: Cmax LS Means): 133 ng/mL
- AUC(0-t) (human, plasma, po, 3.3 mg/kg, oral 3.3 mg/kg, Fed, read-out: AUClast LS Means): 4250 ng·h/mL
- AUC(0-inf) (human, plasma, po, 3.3 mg/kg, oral 3.3 mg/kg, Fed, read-out: AUC∞ LS Means): 4330 ng·h/mL
- Cmax (human, plasma, po, 3.3 mg/kg, oral 3.3 mg/kg, Fed, read-out: Cmax LS Means): 474 ng/mL
- bioavailability (human, plasma, po, human, fasting, read-out: oral bioavailability, FAUC∞ based regression): 14 to 24%
- bioavailability (human, plasma, po, human, fasting, read-out: oral bioavailability, FCmax based regression): 4 to 16%
- bioavailability (human, plasma, po, human, fed state, read-out: oral bioavailability, FAUC∞ based regression): 41 to 71%
- bioavailability (human, plasma, po, human, fed state, read-out: oral bioavailability, FCmax based regression): 16 to 52%
- % extrap Arithmetic Mean [1]: 1.518%
- % extrap GMean [1]: 1.219%
- % extrap Median [1]: 1.45%
- AUC∞/Dose Arithmetic Mean [1]: 7.224 ng·h/mL/mg
- AUC∞/Dose GMean [1]: 6.128 ng·h/mL/mg
- AUC∞/Dose Median [1]: 5.77 ng·h/mL/mg
- Clast Arithmetic Mean [1]: 1.158 ng/mL
- Clast GMean [1]: 0.8024 ng/mL
- Clast Median [1]: 0.719 ng/mL
- Cmax/Dose Arithmetic Mean [1]: 0.6705 ng/mL/mg
- Cmax/Dose GMean [1]: 0.5482 ng/mL/mg
- Cmax/Dose Median [1]: 0.622 ng/mL/mg
- R^2 Arithmetic Mean [1]: 0.9926 #
- R^2 GMean [1]: 0.9925 #
- R^2 Median [1]: 0.9962 #
- λZ Arithmetic Mean [1]: 0.04754 h⁻¹
- λZ GMean [1]: 0.04443 h⁻¹
- λZ Median [1]: 0.0381 h⁻¹
- % extrap Arithmetic Mean [2]: 1.865%
- % extrap GMean [2]: 1.301%
- % extrap Median [2]: 1.73%
- AUC∞/Dose Arithmetic Mean [2]: 20.18 ng·h/mL/mg
- AUC∞/Dose GMean [2]: 17.90 ng·h/mL/mg
- AUC∞/Dose Median [2]: 19.2 ng·h/mL/mg
- Clast Arithmetic Mean [2]: 3.055 ng/mL
- Clast GMean [2]: 2.053 ng/mL
- Clast Median [2]: 2.03 ng/mL
- Cmax/Dose Arithmetic Mean [2]: 2.340 ng/mL/mg
- Cmax/Dose GMean [2]: 1.958 ng/mL/mg
- Cmax/Dose Median [2]: 2.11 ng/mL/mg
- R^2 Arithmetic Mean [2]: 0.9928 #
- R^2 GMean [2]: 0.9928 #
- R^2 Median [2]: 0.9963 #
- λZ Arithmetic Mean [2]: 0.04026 h⁻¹
- λZ GMean [2]: 0.03648 h⁻¹
- λZ Median [2]: 0.0327 h⁻¹
- Relative bioavailability, Ratio (%) Fasted/IV, AUClast [3]: 17.11%
- Relative bioavailability, Ratio (%) Fasted/IV, AUC∞ [3]: 17.15%
- Relative bioavailability, Ratio (%) Fasted/IV, Cmax [3]: 7.62%
- Relative bioavailability, Ratio (%) Fed/IV, AUClast [4]: 50.75%
- Relative bioavailability, Ratio (%) Fed/IV, AUC∞ [4]: 51.06%
- Relative bioavailability, Ratio (%) Fed/IV, Cmax [4]: 27.24%
- Relative bioavailability, Ratio (%) Fed/Fasted, AUClast [5]: 291.00%
- Relative bioavailability, Ratio (%) Fed/Fasted, AUC∞ [5]: 292.05%
- Relative bioavailability, Ratio (%) Fed/Fasted, Cmax [5]: 357.10%
- concentration at 96 h (plasma, other: oral solution (fed and fasted) and IV infusion, 3.3 mg/kg, human, individual subjects, across treatments, read-out: quantifiable plasma concentrations at 96 hours post-dose): 0.273 to 7.18 ng/mL
